Measured values published in patent US9120815B2, “Solid state forms of macrocyclic kinase inhibitors” (Tragara Pharmaceuticals, Inc., priority 2010, dated 2015).
“Also recorded” adds a separate entry of the source.

Legend:
Assay type in all cases: physicochemical
[1] = Thermodynamic aqueous solubility; conditions: for solubility at 24 h: 25 °C, thermodynamic from solid; for solubility at 24 h / aqueous solubility: water; for final pH: pH of the aqueous suspension after equilibration; for aqueous solubility: 25° C., 24 hours
Protocol: Aqueous solubility was determined by suspending sufficient compound in water to give a maximum final concentration of 210 mg·ml^−1 of the parent free-form of the compound. The suspension was equilibrated at 25° C. for 24 hours then the pH was measured. The suspension was then filtered through a glass fibre C filter into a 96 well plate. The filtrate was then diluted by a factor of 101. Quantitation was by HPLC with reference to a standard solution of approximately 0.1 mg·ml^−1. in DMSO. Different volumes of the standard, diluted and undiluted sample solutions were injected. The solubility was calculated using the peak areas determined by integration of the peak found at the same retention time as the principal peak in the standard injection.
Analysis was performed on an Agilent HP1 100 series system equipped with a diode array detector and using ChemStation software vB.02.01-SR1.

[2] = Stability study: rate of hydration of anhydrous polymorph in methocel/Tween 80 test medium, XRPD; conditions: for Time points where transformation was observed: no seeds
Protocol: Test medium was prepared by dissolving methocel (4 g) in water (196 mL) to afford a 2% (w/w) solution. After stirring for 12 hours to ensure a homogenous solution is obtained, Tween 80 (800 mg) and water (600 mL) was added and the mixture stirred for an additional 12 hours to homogenise.
(§1) Test medium (30 mL) was added and each sample was maturated at the indicated temperature and condition (−20° C., 4° C., room temperature with stirring and room temperature without stirring). […] The samples were monitored over time by XRPD to determine the rate of hydration of the anhydrous polymorph.
as §1, with “(5” for “(30”

[3] = Gravimetric Vapour Sorption (GVS) at 25° C.
Protocol: Sorption isotherms were obtained using a SMS DVS Intrinsic moisture sorption analyser, controlled by SMS Analysis Suite software. The sample temperature was maintained at 25° C. by the instrument controls. The humidity was controlled by mixing streams of dry and wet nitrogen, with a total flow rate of 200 ml.min^−1. The relative humidity was measured by a calibrated Rotronic probe (dynamic range of 1.0-100% RH), located near the sample. The weight change, (mass relaxation) of the sample as a function of % RH was constantly monitored by the microbalance (accuracy ±0.005 mg). Typically 5-20 mg of sample was placed in a tared mesh stainless steel basket under ambient conditions. The sample was loaded and unloaded at 40% RH and 25° C. (typical room conditions). A moisture sorption isotherm was performed as outlined below (2 scans giving 1 complete cycle). The standard isotherm was performed at 25° C. at 10% RH intervals over a 0.5-90% RH range. The sample was recovered after completion of the isotherm and re-analysed by XRPD.

[4] = Solid state stability at ambient conditions
[5] = Polymorph screen: maturation in solvents, XRPD; conditions: for XPRD Characterisation after maturation: 3 days
Protocol: An initial polymorphism screen was performed for the fumarate and citrate salts using 10 common class II and III organic solvents (with and without addition of water), plus pure water. […] The samples were subjected to a series of heat/cool cycles (room temp […], 8 hour cycles). After 3 days, the samples were filtered and the solids were characterised by XRPD analysis.

[6] = Stability in humidity chamber 40° C./75% R.H. (XRPD, HPLC); conditions: 2 weeks
Protocol: After 2 days, the solids were isolated by filtration under vacuum at RT to be characterised by XRPD analysis. Each new crystalline solid phase detected was characterised by ^1H NMR and TGA-DSC analyses in order to determine if salt formation had occurred and whether the material was a solvate. At this stage, each salt identified was then analysed by HPLC to determine the chemical purity prior to being stored in the humidity chamber (40° C./75% R.H.) to assess its stability.

[7] = 1 mg/mL, 20-25° C. (under stirring)
[8] = 1 mg/mL, 20-25° C. (without stirring)
[9] = 10 mg/mL, 20-25° C. (under stirring)
[10] = 10 mg/mL, 20-25° C. (without stirring)
[11] = Acetonitrile, w/ water (5% v/v)
[12] = DCM, w/o water, RT-50° C. cycles
[13] = Ethyl acetate, w/ water (5% v/v)
[14] = nitromethane, w/ water (5% v/v)
[15] = listed as Fumiarate Pattern 2, fumarate

## CN1CC=CCCOc2cccc(c2)C2=CC=NC(=Nc3cccc(c3)C1)N2.O=C(O)CC(O)(CC(=O)O)C(=O)O [Citrate Pattern 1, 14-methyl-20-oxa-5,7,14,27-tetraazatetracyclo-[19.3.1.12,6.18,12]heptacosa-1(25),2,4,6,8,10,12(26),16,21,23-decaene citrate]
[1]
  solubility at 24 h: 0.16 mg/mL
  final pH: 3.94
  aqueous solubility: 0.16 mg/mL
[2]; comparison of citrate and fumarate salts
  kinetics of hydration: slower than for the fumarate salt
[2]; 1 mg/mL, 4° C.
  Time points where transformation was observed: No
[2]; [7]
  Time points where transformation was observed: 120 h
[2]; [8]
  Time points where transformation was observed: Clear Solution
[2]; 1 mg/mL, −20° C.
  Time points where transformation was observed: No
[2]; 10 mg/mL, 4° C.
  Time points where transformation was observed: No
[2]; [9]
  Time points where transformation was observed: 48 h
[2]; [10]
  Time points where transformation was observed: No conversion
[2]; 10 mg/mL, −20° C.
  Time points where transformation was observed: No
[3]; citrate
  changes in the XRPD pattern after the GVS experiment: no transformation; also recorded: between 0 and 90% relative humidity. No
[4]
  stability in the solid state: stable
[5]; Acetone, w/ water (5% v/v)
  XPRD Characterisation after maturation: Citrate Pattern 1
[5]; Acetone, w/o water
  XPRD Characterisation after maturation: Citrate Pattern 1
[5]; [11]
  XPRD Characterisation after maturation: Citrate Pattern 2
[5]; Acetonitrile, w/o water
  XPRD Characterisation after maturation: Citrate Pattern 1
[5]; DCM, w/ water (5% v/v)
  XPRD Characterisation after maturation: Citrate Pattern 3
[5]; [12]
  XPRD Characterisation after maturation: Citrate Pattern 1
[5]; EtOH, w/ water (5% v/v)
  XPRD Characterisation after maturation: Citrate Pattern 1
[5]; EtOH, w/o water
  XPRD Characterisation after maturation: Citrate Pattern 1
[5]; [13]
  XPRD Characterisation after maturation: Citrate Pattern 2
[5]; Ethyl acetate, w/o water
  XPRD Characterisation after maturation: Citrate Pattern 1
[5]; IPA, w/ water (5% v/v)
  XPRD Characterisation after maturation: Citrate Pattern 1
[5]; IPA, w/o water
  XPRD Characterisation after maturation: Citrate Pattern 1
[5]; TBME, w/ water (5% v/v)
  XPRD Characterisation after maturation: Citrate Pattern 2
[5]; TBME, w/o water
  XPRD Characterisation after maturation: Citrate Pattern 1
[5]; THF, w/ water (5% v/v)
  XPRD Characterisation after maturation: Citrate Pattern 2
[5]; THF, w/o water
  XPRD Characterisation after maturation: Citrate Pattern 1
[5]; Toluene, w/ water (5% v/v)
  XPRD Characterisation after maturation: Citrate Pattern 2
[5]; Toluene, w/o water
  XPRD Characterisation after maturation: Citrate Pattern 1
[5]
  transformation after 3 days of maturation in dried solvents: No transformation
[5]; [14]
  XPRD Characterisation after maturation: Citrate Pattern 2
[5]; nitromethane, w/o water
  XPRD Characterisation after maturation: Citrate Pattern 1
[5]; pure water
  XPRD Characterisation after maturation: Citrate Pattern 2
[6]; citrate
  XPRD stability after 40° C./75% RH 2 weeks: not sensitive to humidity; also recorded: no transformation; also recorded: crystallinity, and no change was observed after
[6]; listed as Citrate pattern 1, citrate
  XPRD stability after 40° C./75% RH 2 weeks: No change

## CN1CC=CCCOc2cccc(c2)C2=CC=NC(=Nc3cccc(c3)C1)N2.O=S(=O)(O)c1ccccc1 [Besylate Pattern 1, 14-methyl-20-oxa-5,7,14,27-tetraazatetracyclo-[19.3.1.12,6.18,12]heptacosa-1(25),2,4,6,8,10,12(26),16,21,23-decaene besylate]
[6]; besylate
  XPRD stability after 40° C./75% RH 2 weeks: stable
[6]; listed as Besylate pattern 1, besylate
  XPRD stability after 40° C./75% RH 2 weeks: No change

## CN1CC=CCCOc2cccc(c2)C2=CC=NC(=Nc3cccc(c3)C1)N2.O=C(O)/C=C/C(=O)O [Fumarate Pattern 2, 14-methyl-20-oxa-5,7,14,27-tetraazatetracyclo-[19.3.1.12,6.18,12]heptacosa-1(25),2,4,6,8,10,12(26),16,21,23-decaene fumarate]
[1]
  solubility at 24 h: 0.029 mg/mL
  final pH: 3.80
  aqueous solubility: 0.029 mg/mL
[2]; 1 mg/mL, 4° C.
  Time points where transformation was observed: 120 h
[2]; [7]
  Time points where transformation was observed: 24 h
[2]; [8]
  Time points where transformation was observed: 48 h
[2]; 1 mg/mL, −20° C.
  Time points where transformation was observed: 120 h
[2]; 10 mg/mL, 4° C.
  Time points where transformation was observed: No
[2]; [9]
  Time points where transformation was observed: 48 h
[2]; [10]
  Time points where transformation was observed: 120 h
[2]; 10 mg/mL, −20° C.
  Time points where transformation was observed: No
[3]; fumarate
  changes in the XRPD pattern after the GVS experiment: no transformation
[3]; [15]
  changes in the XRPD pattern after the GVS experiment: between 0 and 90% relative humidity. No
[4]
  stability in the solid state: stable
[5]; Acetone, w/ water (5% v/v)
  XPRD Characterisation after maturation: Fumarate Pattern 2
[5]; Acetone, w/o water
  XPRD Characterisation after maturation: Fumarate Pattern 2
[5]; [11]
  XPRD Characterisation after maturation: Fumarate Pattern 2
[5]; Acetonitrile, w/o water
  XPRD Characterisation after maturation: Fumarate Pattern 2
[5]; DCM, w/ water (5% v/v)
  XPRD Characterisation after maturation: Fumarate Pattern 2
[5]; [12]
  XPRD Characterisation after maturation: Fumarate Pattern 2
[5]; EtOH, w/ water (5% v/v)
  XPRD Characterisation after maturation: Fumarate Pattern 2
[5]; EtOH, w/o water
  XPRD Characterisation after maturation: Fumarate Pattern 2
[5]; [13]
  XPRD Characterisation after maturation: Fumarate Pattern 1
[5]; Ethyl acetate, w/o water
  XPRD Characterisation after maturation: Fumarate Pattern 2
[5]; IPA, w/ water (5% v/v)
  XPRD Characterisation after maturation: Fumarate Pattern 2
[5]; IPA, w/o water
  XPRD Characterisation after maturation: Fumarate Pattern 2
[5]; TBME, w/ water (5% v/v)
  XPRD Characterisation after maturation: Fumarate Pattern 1
[5]; TBME, w/o water
  XPRD Characterisation after maturation: Fumarate Pattern 2
[5]; THF, w/ water (5% v/v)
  XPRD Characterisation after maturation: Fumarate Pattern 2
[5]; THF, w/o water
  XPRD Characterisation after maturation: Fumarate Pattern 2
[5]; Toluene, w/ water (5% v/v)
  XPRD Characterisation after maturation: Fumarate Pattern 1
[5]; Toluene, w/o water
  XPRD Characterisation after maturation: Fumarate Pattern 2
[5]
  transformation after 3 days of maturation in dried solvents: No transformation
[5]; [14]
  XPRD Characterisation after maturation: Fumarate Pattern 2
[5]; nitromethane, w/o water
  XPRD Characterisation after maturation: Fumarate Pattern 2
[5]; pure water
  XPRD Characterisation after maturation: Fumarate Pattern 1
[6]; fumarate
  XPRD stability after 40° C./75% RH 2 weeks: not sensitive to humidity
[6]; listed as Fumarate pattern 2, fumarate
  XPRD stability after 40° C./75% RH 2 weeks: no transformation
[6]; listed as Fumareate pattern 2, fumarate
  XPRD stability after 40° C./75% RH 2 weeks: No change
[6]; [15]
  XPRD stability after 40° C./75% RH 2 weeks: crystallinity, and no change was observed after

## CN1CC=CCCOc2cccc(c2)C2=CC=NC(=Nc3cccc(c3)C1)N2.O=C(O)/C=C/C(=O)O [Fumarate Pattern 1, 14-methyl-20-oxa-5,7,14,27-tetraazatetracyclo-[19.3.1.12,6.18,12]heptacosa-1(25),2,4,6,8,10,12(26),16,21,23-decaene fumarate]
[6]; listed as Fumarate pattern 1, fumarate
  XPRD stability after 40° C./75% RH 2 weeks: No change
